Laboratory results reported in US8580762B2, “Substituted purine and 7-deazapurine compounds” (Epizyme, Inc., priority 2010, dated 2013).
Read-outs that look alike come from different tables or passages of the source.

How the values were obtained:
[1] = tested on: EOL-1 cells which express an MLL-PTD; assay: In vitro anti-proliferative assay, EOL-1; assay type: cell-based; conditions: Homo sapiens, EOL1, 336 h; EOL-1, MLL-PTD; up to 14 days
Method: (§1) In Vitro Anti-Proliferative Assay. The potency and selectivity of the anti-proliferative activity of the compounds of the present invention were assessed using a panel of MLL-rearranged and non-MLL-rearranged human leukemia cell lines. The MLL-rearranged panel included cell lines derived from ALL, AML and biphenotypic leukemias harboring MLL-AF4, MLL-AF9 or MLL-ENL fusions. These cell lines recruit DOT1L. […] Exponentially growing cells were plated, in triplicate, in 96-well plates at a density of 3×10^4 cells/well in a final volume of 150 μl. […] Anti-proliferative activity was determined by cell viability measurements every 3-4 days for up to 14 days.

Jurkat = assay: In vitro anti-proliferative assay, Jurkat; assay type: cell-based, human; conditions: non-MLL-rearranged, up to 14 days
Method: as §1

HL-60 = assay: In vitro anti-proliferative assay, HL-60; assay type: cell-based, human; conditions: HL-60, non-MLL-rearranged; up to 14 days
Method: as §1

MV4-11 xenograft tumors = assay: In vivo anti-proliferative assay, mouse xenograft model of MLL-rearranged leukemia; set-up: species or system female nude mice; conditions: 21 days; for TGI compared to controls: non-statistically significant
Method: (§2) In Vivo Anti-Proliferative Assay. The in vivo anti-tumor activity of the compounds of the present invention were assessed in a mouse xenograft model of MLL-rearranged leukemia. Four groups of 20 (Groups 1, 3, 4 and 5), and one group of 8 (Group 2) female nude mice (average weight of 0.023 kg) bearing MV4-11 xenograft tumors of sizes ranging from 80-120 mm^3 were implanted subcutaneously with minipumps (Alzet Model 2001). Group 1 received vehicle only from the pump. Group 2 received vehicle only from the pump plus ip injections tid (8 hours apart) of vehicle. […] Pumps were designed to last for 7 days and were exchanged twice to give total infusion duration of 21 days exposure. […] Tumor size was measured every 4 days. After 21 days the study was terminated, and mean TGI calculated.

[2] = Plasma levels of Compound 2 in the xenograft study; assay type: in vivo, female nude mice; conditions: female, nude, mouse; for concentration at 21 day: subcutaneous, read-out: average plasma level from the last sampling on day 21
Method: as §2, with “Four” for “In Vivo Anti-Proliferative Assay. The in vivo anti-tumor activity of the compounds of the present invention were assessed in a mouse xenograft model of MLL-rearranged leukemia. Four”

DOT1L(1-416) = DOT1L(1-416) (Homo sapiens, UniProt Q8TEK3); assay: Determination of IC50: DOT1L(1-416) methyltransferase assay, 3H-SAM, oligonucleosome substrate, Flashplate; assay type: biochemical; conditions: class symbols; read-out: DOT1L IC50
How it was run: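 Compounds in 10-point 3-fold DMSO dilutions were tested in reactions started with substrate mix of 200 nM [3H]-SAM, 600 nM unlabeled SAM and 20 nM oligonucleosome. Reactions ran 120 min at room temperature and were quenched with 100 μM SAM. Labeled substrate was captured on streptavidin Flashplates and counted by scintillation to give IC50.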

Chain of DOT1L(1-416) (Q8TEK3 1-416): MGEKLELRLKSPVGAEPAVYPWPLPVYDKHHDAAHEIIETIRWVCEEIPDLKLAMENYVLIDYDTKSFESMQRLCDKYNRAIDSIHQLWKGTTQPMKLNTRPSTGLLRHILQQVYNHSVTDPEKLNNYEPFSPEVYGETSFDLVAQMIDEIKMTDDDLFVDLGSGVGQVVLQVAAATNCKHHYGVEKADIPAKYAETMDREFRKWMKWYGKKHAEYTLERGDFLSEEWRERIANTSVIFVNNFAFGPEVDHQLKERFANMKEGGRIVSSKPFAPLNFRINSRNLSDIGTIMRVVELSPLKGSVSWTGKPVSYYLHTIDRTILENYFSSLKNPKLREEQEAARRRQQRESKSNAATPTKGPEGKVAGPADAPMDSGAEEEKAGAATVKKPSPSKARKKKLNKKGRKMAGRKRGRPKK

Cmax ([2]; Group 3, ip 20 mg/kg tid plus 112 mg/kg/day minipump, read-out: Cmax after each of the tid ip injections) [ng/mL] | concentration at 21 day ([2]; Group 4, 112 mg/kg/day minipump) [ng/mL] | concentration at 21 day ([2]; Group 5, 56 mg/kg/day minipump) [ng/mL] | IC50 (DOT1L(1-416)) [nM] | Compound | IC50 [1] [nM] | anti-proliferative activity (Jurkat) | anti-proliferative activity (HL-60) | TGI compared to controls (MV4-11 xenograft tumors; 56 mg/kg/day minipump (Group 5)) [%] | TGI compared to controls (MV4-11 xenograft tumors; 112 mg/kg/day minipump (Group 4)) [%] | TGI compared to the controls (MV4-11 xenograft tumors; Group 3: 112 mg/kg/day minipump plus ip 20 mg/kg tid, total 172 mg/kg/day, statistically significant) [%]
4200 to 5000 | 99 | 52 |  | CC(C)N(C[C@H]1O[C@@H](n2cnc3c(N)ncnc32)[C@H](O)[C@@H]1O)[C@H]1C[C@@H](CCc2nc3cc(C(C)(C)C)ccc3[nH]2)C1 [Compound 2, (2R,3R,4S,5R)-2-(6-amino-9H-purin-9-yl)-5-((((1r,3S)-3-(2-(5-(tert-butyl)-1H-benzo[d]imidazol-2-yl)ethyl)cyclobutyl)(isopropyl)amino)methyl)tetrahydrofuran-3,4-diol] | 11 | no activity | no activity | 43 | 38 | > 70
 |  |  | < 100 | COCC(C)(C)c1ccc2[nH]c(CCC3CC(N(C)C[C@H]4O[C@@H](n5cnc6c(N)ncnc65)[C@H](O)[C@@H]4O)C3)nc2c1 (stereo partly drawn) [Compound 140, (2R,3R,4S,5R)-2-(6-amino-9H-purin-9-yl)-5-(((3-(2-(5-(1-methoxy-2-methylpropan-2-yl)-1H-benzo[d]imidazol-2-yl)ethyl)cyclobutyl) (methyl)amino)methyl) tetrahydrofuran-3,4-diol] |  |  |  |  |  | 
